Ki data for 33 compounds are collected here from patent US7491827B2, “Aryl sulfonamides useful as inhibitors of chemokine receptor activity” (Millennium Pharmaceuticals, Inc., priority 2003, dated 2009).

In one test the target is T1, cloned human CCR8 receptor stably expressed in L1.2 cells (Homo sapiens, UniProt P51685).
T1 construct: expressed in transfected cells
T1 sequence (P51685 whole entry): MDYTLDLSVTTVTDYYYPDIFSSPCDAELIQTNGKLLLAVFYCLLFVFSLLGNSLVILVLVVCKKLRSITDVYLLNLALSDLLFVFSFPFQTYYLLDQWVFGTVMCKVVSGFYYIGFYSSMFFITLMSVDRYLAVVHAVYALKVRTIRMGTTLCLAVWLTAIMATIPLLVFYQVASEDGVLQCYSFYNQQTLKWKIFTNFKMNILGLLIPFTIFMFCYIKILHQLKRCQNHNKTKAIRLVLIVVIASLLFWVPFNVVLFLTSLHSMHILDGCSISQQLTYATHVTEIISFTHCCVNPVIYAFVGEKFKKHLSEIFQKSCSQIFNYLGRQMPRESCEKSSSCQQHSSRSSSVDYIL
The experiment in a line: whole cell binding screen: inhibition of biotinylated human I309 binding to CCR8 (FMAT 8100 HTS). As to conditions: Ki of compounds to inhibit I-309 binding to CCR8, L1.2/hCCR8 cells, biotinylated human I-309, 10 point concentration response starting at 10 μM. The gist of the method: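 L1.2 murine pre-B cells stably expressing human CCR8 (4.0×10^5 cells/mL) in HBSS/HEPES/fatty-acid-free BSA/azide buffer were mixed with biotinylated human I309 and compounds for 0.5 h, read by FMAT fluorescence. 10-point curves from 10 μM final; percent inhibition normalized to no-inhibitor and 100 nM unlabeled I309 controls.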
For the compound `CCOC(=O)N1CCC(NS(=O)(=O)c2ccc(C(=O)Nc3ccccc3C)c3ccccc23)CC1` [Compound F-11, 4-(4-o-Tolylcarbamoyl-naphthalene-1-sulfonylamino)-piperidine-1-carboxylic acid ethyl ester], the inhibition constant (Ki) is less than 0.5 µM.
`Cc1ccccc1C(=O)Nc1ccc(S(=O)(=O)NC2CCN(C(=O)C3CCCC3)CC2)c2ccccc12` [Compound C-38, N-[4-(1-Cyclopentanecarbonyl-piperidin-4-ylsulfamoyl)-naphthalen-1-yl]-2-methyl-benzamide] had a Ki of less than 0.5 µM.

The test is the same for the next values; noted with them: L1.2/hCCR8 cells, biotinylated human I-309, 10 point concentration response starting at 10 μM; read-out: Ki of compounds to inhibit I-309 binding to CCR8.
Take `CCNC(=O)N1CCC(NS(=O)(=O)c2ccc(NC(=O)c3ccccc3C)c3ccccc23)C1` (racemic) [Compound C-52, (±)-3-[4-(2-Methyl-benzoylamino)-naphthalene-1-sulfonylamino]-pyrrolidine-1-carboxylic acid ethylamide]: the inhibitory constant (Ki) is less than 0.5 µM.
In the case of `Cc1cccc(NC(=O)c2cccc3c(S(=O)(=O)NC4CCN(C(=O)N(C)C)CC4)cccc23)c1C` [Compound H-38, 4-[5-(2,3-Dimethyl-phenylcarbamoyl)-naphthalene-1-sulfonylamino]-piperidine-1-carboxylic acid dimethylamide], the inhibition constant (Ki) is less than 0.5 µM.
Regarding `Cc1ccccc1C(=O)Nc1ccc(S(=O)(=O)NC2CCCCC2)c2c1CCCC2` [Compound E-9, N-(4-Cyclohexylsulfamoyl-5,6,7,8-tetrahydro-naphthalen-1-yl)-2-methyl-benzamide], the inhibition constant Ki is less than 0.5 µM.
For the compound `CCOC(=O)N1CCC(NS(=O)(=O)c2cccc3c(C(=O)Nc4ccccc4)cccc23)CC1` [Compound H-27, 4-(5-Phenylcarbamoyl-naphthalene-1-sulfonylamino)-piperidine-1-carboxylic acid ethyl ester], the Ki is less than 1 µM.
Regarding `CCOC(=O)N1CC[C@@H](NS(=O)(=O)c2ccc(NC(=O)c3ccccc3C)c3ccccc23)[C@@H](C)C1` (single isomer, unassigned) [Compound C-138, cis-3-Methyl-4-[4-(2-methyl-benzoylamino)-naphthalene-1-sulfonylamino]-piperidine-1-carboxylic acid ethyl ester], the inhibition constant (Ki) was less than 1 µM.
The same measure, in the same setting: next, `CCOC(=O)N1CCC(NS(=O)(=O)c2cccc3c(NC(=O)c4ccc(C)cc4)cccc23)CC1` [Compound H-15, 4-[5-(4-Methyl-benzoylamino)-naphthalene-1-sulfonylamino]-piperidine-1-carboxylic acid ethyl ester]: less than 1 µM; `CCCC(=O)N1CCC(NS(=O)(=O)c2ccc(NC(=O)C3CCOCC3)c3ccccc23)CC1` [Compound D-20, Tetrahydro-pyran-4-carboxylic acid [4-(1-butyryl-piperidin-4-ylsulfamoyl)-naphthalen-1-yl]-amide]: less than 0.5 µM.
With `CCOC(=O)N1CCC(NS(=O)(=O)c2ccc(NC(=O)c3ccccc3C#N)c3ccccc23)CC1` [Compound B-26, 4-[4-(2-Cyano-benzoylamino)-naphthalene-1-sulfonylamino]-piperidine-1-carboxylic acid ethyl ester], the inhibitory constant (Ki) is less than 0.5 µM.
Turning to `CCCC(=O)N1CCC(NS(=O)(=O)c2ccc(NC(=O)c3ccc(Cl)cc3Cl)c3ccccc23)CC1` [Compound C-111, N-[4-(1-Butyryl-piperidin-4-ylsulfamoyl)-naphthalen-1-yl]-2,4-dichloro-benzamide], the inhibitory constant (Ki) was less than 0.5 µM.
For `CCOC(=O)N1CCC(NS(=O)(=O)c2ccc(CNCc3ccncc3)c3ccccc23)CC1` [Compound G-15, 4-(4-{[(Pyridin-4-ylmethyl)-ainno]-methyl}-naphthalene-1-sulfonylamino)-piperidine-1-carboxylic acid ethyl ester], the inhibition constant Ki was less than 1 µM.
Consider `CCc1ccc(NS(=O)(=O)c2cccc3c(NC(=O)c4ccccc4)cccc23)cc1` [Compound H-2, N-[5-(4-Ethyl-phenylsulfamoyl)-naphthalen-1-yl]-benzamide], for which the inhibition constant Ki is less than 30 µM.
As to `CCOC(=O)[C@@H]1CNCC[C@@H]1NS(=O)(=O)c1ccc(NC(=O)c2ccccc2C)c2ccccc12` (racemic) [Compound C-77, (±)-(cis)-4-[4-(2-Methyl-benzoylamino)-naphthalene-1-sulfonylamino]-piperidine-3-carboxylic acid ethyl ester], the Ki is less than 30 µM.
`CC(C)(C)OC(=O)N1CCC(NS(=O)(=O)c2ccc(C(=O)Nc3ccccc3Cl)c3ccccc23)CC1` [Compound F-14, 4-[4-(2-Chloro-phenylcarbamoyl)-naphthalene-1-sulfonylamino]-piperidine-1-carboxylic acid tert-butyl ester]: the Ki is less than 1 µM.
Still for that read-out and setting: the value for `Cc1ccccc1C(=O)Nc1ccc(S(=O)(=O)NC2CCNCC2)c2c1CCC2` [Compound H-67, 2-Methyl-N-[7-(piperidin-4-ylsulfamoyl)-indan-4-yl]-benzamide] was less than 1 µM; that for `Cc1ccccc1C(=O)Nc1ccc(S(=O)(=O)N[C@@H]2[C@H](C)CNC[C@@H]2C)c2ccccc12` [Compound C-68, (±)-(cisscis)-N-[4-(3,5-Dimethyl-piperidin-4-ylsulfamoyl)-naphthalen-1-yl]-2-methyl-benzamide] was less than 30 µM.
On to `CCNC(=O)N1CCC(NS(=O)(=O)c2ccc(NC(=O)c3ccccc3C)c3c2CCCC3)CC1` [Compound E-19, 4-[4-(2-Methyl-benzoylamino)-5,6,7,8-tetrahydro-naphthalene-1-sulfonylamino]-piperidine-1-carboxylic acid ethylamide], for which the Ki was less than 0.5 µM.
As to `COc1ccc(NS(=O)(=O)c2cccc3c(NC(=O)c4ccccc4)cccc23)cc1` [Compound H-1, N-[5-(4-Methoxy-phenylsulfamoyl)-naphthalen-1-yl]-benzamide], the Ki was less than 0.5 µM.
In the case of `CCOC(=O)N1CCC(NS(=O)(=O)c2cc3c(c(NC(=O)C4CCCCC4)c2)CCCC3)CC1` [Compound H-57, 4-[4-(Cyclohexanecarbonyl-amino)-5,6,7,8-tetrahydro-naphthalene-2-sulfonylamino]-piperidine-1-carboxylic acid ethyl ester], the Ki is less than 1 µM.
Consider `CCOC(=O)N1CCC(NS(=O)(=O)c2cccc3c(NC(=O)c4cc(C)oc4C)cccc23)CC1` [Compound H-20, 4-{5-[(2,5-Dimethyl-furan-3-carbonyl)-amino]-naphthalene-1-suffonylamino}-piperidine-1-carboxylic acid ethyl ester], for which the Ki was less than 1 µM.
For the compound `CN(C)C(=O)N1CCC(NS(=O)(=O)c2ccc(C(=O)N(C)C3CCCCC3)c3ccccc23)CC1` [Compound F-28, 4-[4-(Cyclohexyl-methyl-carbamoyl)-naphthalene-1-sulfonylamino]-piperidine-1-carboxylic acid dimethylamide], the Ki is less than 0.5 µM.
For the compound `CCOC(=O)N1CCC(NS(=O)(=O)c2ccc(NC(=O)C3CCCCC3)c3c2CCCC3)CC1` [Compound E-6, 4-(4-(Cyclohexanecarbonyl-amino)-5,6,7,8-tetrahydro-naphthalene-1-sulfonylamino)-piperidine-1-carboxylic acid ethyl ester], the inhibition constant (Ki) was less than 0.5 µM.
Still for that read-out and setting: next, `CCOC(=O)N1CCC(NS(=O)(=O)c2ccc(CNCc3ccccc3Cl)c3ccccc23)CC1` [Compound G-21, 4-{4-[(2-Chloro-benzylamino)-methyl]-naphthalene-1-sulfonylamino}-piperidine-1-carboxylic acid ethyl ester]: less than 0.5 µM; `CCOC(=O)N1CCC(NS(=O)(=O)c2cccc3c(C(=O)Nc4cccc(C)c4C)cccc23)CC1` [Compound H-36, 4-[5-(2,3-Dimethyl-phenylcarbamoyl)-naphthalene-1-sulfonylamno]-piperidine-1-carboxylic acid ethyl ester]: less than 0.5 µM; `CN(C)C(=O)N1CCC(NS(=O)(=O)c2ccc(C(=O)NC3CCOCC3)c3ccccc23)CC1` [Compound F-21, 4-[4-(Tetrahydro-pyran-4-ylcarbamoyl)-naphthalene-1-sulfonylamino]-piperidine-1-carboxylic acid dimethylamide]: less than 0.5 µM.
With `Cc1ccccc1C(=O)Nc1ccc(S(=O)(=O)NC2CCN(c3ncccn3)CC2)c2ccccc12` [Compound C-57, 2-Methyl-N-[4-(1-pyrimidin-2-yl-piperidin-4-ylsulfamoyl)-naphthalen-1-yl]-benzamide], the inhibitory constant (Ki) was less than 0.5 µM.
Take `Cc1ccccc1C(=O)Nc1cc(S(=O)(=O)NC2CCCCC2)cc2c1CCCC2` [Compound H-58, N-(3-Cyclohexylsulfamoyl-5,6,7,8-tetrahydro-naphthalen-1-yl)-2-methyl-benzamide]: the Ki was less than 1 µM.
The same measure, in the same setting: next, `CN(C)CCNS(=O)(=O)c1ccc(NC(=O)c2ccccc2)c2ccccc12` [Compound A-9, N-[4-(2-Dimethylamino-ethylsulfamoyl)-naphthalen-1-yl]-benzamide]: less than 30 µM; `CCCC(=O)N1CC[C@H](NS(=O)(=O)c2ccc(NC(=O)c3ccccc3C)c3ccccc23)[C@H](C(=O)O)C1` (racemic) [Compound C-78, (±)-(cis)-1-Butyryl-4-[4-(2-methyl-benzoylamino)-naphthalene-1-sulfonylamino]-piperidine-3-carboxylic acid]: less than 30 µM; `CCOC(=O)N1CCC(C)(NS(=O)(=O)c2ccc(NC(=O)c3ccccc3C)c3ccccc23)CC1` [Compound C-25, 4-Methyl-4-[4-(2-methyl-benzoylamino)-naphthalene-1-sulfonylamino]-piperidine-1-carboxylic acid ethyl ester]: less than 0.5 µM.
In the case of `O=C(Nc1ccc(S(=O)(=O)Nc2ccncc2)c2ccccc12)c1ccccc1` [Compound A-14, N-[4-(Pyridin-4-ylsulfamoyl)-naphthalen-1-yl]-benzamide], the Ki was less than 0.5 µM.
Take `CN1CCCC(C(=O)Nc2ccc(S(=O)(=O)NC3CCNCC3)c3ccccc23)C1` [Compound D-22, 1-Methyl-piperidine-3-carboxylic acid [4-(piperidin-4-ylsulfamoyl)-naphthalen-1-yl]-amide]: the Ki was less than 30 µM.

By Ki is commonly meant a dissociation constant, usually derived from enzyme kinetics or from competition with a known ligand.
